Experimental data taken from US8574563B2 (Bristol-Myers Squibb Company, priority 2006, dated 2013).
Read-outs that look alike come from different tables or passages of the source.

Tested on: HCV 1b-377-neo replicon cells
Test: HCV replicon assay, HCV 1b-377-neo replicon cells (1b FRET)
Type: cell-based, Hepatitis C virus genotype 1b
Conditions: HCV 1b-377-neo replicon cells, HCV 1b genotype, read-out: EC50 range against HCV 1b (Table 2, Range)
Method in brief: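 Compounds were tested in genotype 1b subgenomic replicon cells carrying a neomycin marker, alongside a matched replicon line with an NS5A Y2065H substitution that confers resistance to a reference NS5A inhibitor.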

Row | Compound | EC50 (Hepatitis C virus) [nM] | EC50 [nM]
1 | COC(=O)NCC(=O)N1[C@H](c2ncc(-c3ccc(-c4ccc(-c5cnc([C@@H]6C[C@@H]7C[C@@H]7N6C(=O)CNC(=O)OC)[nH]5)cc4)cc3)[nH]2)C[C@@H]2C[C@@H]21 [Example M129, methyl (2-((1S,3S,5S)-3-(5-(4′-(2-((1S,3S,5S)-2-(((methoxycarbonyl)amino)acetyl)-2-azabicyclo[3.1.0]hex-3-yl)-1H-imidazol-5-yl)-4-biphenylyl)-1H-imidazol-2-yl)-2-azabicyclo[3.1.0]hex-2-yl)-2-oxoethyl)carbamate] | 1000 to 10000 | 
2 | CN(C)[C@@H](C(=O)N1CCC[C@H]1c1ncc(-c2ccc(-c3ccc(-c4cnc([C@@H]5CCCN5C(=O)[C@@H](c5ccccc5)N(C)C)[nH]4)cc3C(F)(F)F)cc2)[nH]1)c1ccccc1 [Example 130] | 0.001 to 0.999 | 
3 | O=C(C(c1ccccc1)N1CCC(O)CC1)N1CCC[C@H]1c1ncc(-c2ccc(-c3ccc(-c4cnc([C@@H]5CCCN5C(=O)C(c5ccccc5)N5CCC(O)CC5)[nH]4)cc3)cc2)[nH]1 (stereo partly drawn) [Example 24-4h, 1,1′-(4,4′-biphenyldiylbis(1H-imidazole-5,2-diyl(2S)-2,1-pyrrolidinediyl(2-oxo-1-phenyl-2,1-ethanediyl)))di(4-piperidinol)] | 0.001 to 0.999 | 
4 | CCN(CC)[C@@H](C(=O)N1CCC[C@H]1c1ncc(-c2ccc(-c3ccc(-c4cnc([C@@H]5CCCN5C(=O)[C@H](C)O)[nH]4)cc3)cc2)[nH]1)c1ccccc1 [Example M40, (2S)-1-((2S)-2-(5-(4′-(2-((2S)-1-((2R)-2-(diethylamino)-2-phenylacetyl)-2-pyrrolidinyl)-1H-imidazol-5-yl)-4-biphenylyl)-1H-imidazol-2-yl)-1-pyrrolidinyl)-1-oxo-2-propanol] | 1 to 99 | 
5 | COC(=O)N[C@@H](C(=O)N1CCC[C@H]1c1ncc(-c2ccc(-c3ccc(-c4cnc([C@@H]5CCCN5C(=O)[C@H](NC(=O)OC)c5ccccc5)[nH]4)nc3)cc2)[nH]1)c1ccccc1 [Example 147, methyl ((1R)-2-((2S)-2-(5-(5-(4-(2-((2S)-1-((2R)-2-((methoxycarbonyl)amino)-2-phenylacetyl)-2-pyrrolidinyl)-1H-imidazol-5-yl)phenyl)-2-pyridinyl)-1H-imidazol-2-yl)-1-pyrrolidinyl)-2-oxo-1-phenylethyl)carbamate] | 0.001 to 0.999 | 
6 | O=C([C@H](O)c1ccccc1)N1CCC[C@H]1c1ncc(-c2ccc(-c3ccc(-c4cnc([C@@H]5CCCN5C(=O)[C@H](O)c5ccccc5)[nH]4)cc3)cc2)[nH]1 [Example 2, (1R,1′R)-2,2′-(4,4′-biphenyldiylbis(1H-imidazole-5,2-diyl(2S)-2,1-pyrrolidinediyl))bis(2-oxo-1-phenylethanol)] | 0.001 to 0.999 | 
7 | CC(C)OC(=O)N[C@H](C(=O)N1CCC[C@H]1c1nc(-c2ccc(-c3ccc(-c4c[nH]c([C@@H]5CCCN5C(=O)[C@@H](NC(=O)OC(C)C)C(C)C)n4)cc3)cc2)c[nH]1)C(C)C [Example F26, isopropyl ((1S)-1-(((2S)-2-(4-(4′-(2-((2S)-1-((2S)-2-((isopropoxycarbonyl)amino)-3-methylbutanoyl)-2-pyrrolidinyl)-1H-imidazol-4-yl)-4-biphenylyl)-1H-imidazol-2-yl)-1-pyrrolidinyl)carbonyl)-2-methylpropyl)carbamate] | 1 to 99 | 
8 | CC(=O)N[C@H](C(=O)N1[C@@H]2C[C@@H]2C[C@H]1c1ncc(-c2ccc(-c3ccc(-c4cnc([C@@H]5C[C@H]6C[C@H]6N5C(=O)[C@@H](NC(C)=O)C(C)C)[nH]4)cc3)cc2)[nH]1)C(C)C [Example M140, N-((1S)-1-(((1R,3S,5R)-3-(4-(4′-(2-((1R,3S,5R)-2-((2S)-2-acetamido-3-methylbutanoyl)-2-azabicyclo[3.1.0]hex-3-yl)-1H-imidazol-4-yl)-4-biphenylyl)-1H-imidazol-2-yl)-2-azabicyclo[3.1.0]hex-2-yl)carbonyl)-2-methylpropyl)acetamide] | 0.001 to 0.999 | 
9 | COC(=O)N[C@@H](C(=O)N1CCC[C@H]1c1ncc(-c2ccc(-c3ccc(-c4cnc([C@@H]5CCCN5C(=O)C5(C)CCN(C(=O)OC(C)(C)C)CC5)[nH]4)cc3)cc2)[nH]1)c1ccccc1 [Example 84-12, tert-butyl 4-(((2S)-2-(5-(4′-(2-((2S)-1-((2R)-2-((methoxycarbonyl)amino)-2-phenylacetyl)-2-pyrrolidinyl)-1H-imidazol-5-yl)-4-biphenylyl)-1H-imidazol-2-yl)-1-pyrrolidinyl)carbonyl)-4-methyl-1-piperidinecarboxylate] | 0.001 to 0.999 | 
10 | CCOC(=O)N[C@H](C)C(=O)N1CCC[C@H]1c1ncc(-c2ccc(-c3ccc(-c4cnc([C@@H]5CCCN5C(=O)[C@@H](c5ccccc5)N(CC)CC)[nH]4)cc3)cc2)[nH]1 [Example M30, ethyl ((1R)-2-((2S)-2-(5-(4′-(2-((2S)-1-((2R)-2-(diethylamino)-2-phenylacetyl)-2-pyrrolidinyl)-1H-imidazol-5-yl)-4-biphenylyl)-1H-imidazol-2-yl)-1-pyrrolidinyl)-1-methyl-2-oxoethyl)carbamate] | 1 to 99 | 
11 | COC(=O)N[C@@H](C(=O)N1CCC[C@H]1c1ncc(-c2ccc(-c3ccc(-c4cnc([C@@H]5CCCN5C(=O)[C@H](NC(=O)OC)C(C)C)[nH]4)cc3)cc2)[nH]1)C(C)C [Example 26, methyl ((1R)-1-(((2S)-2-(5-(4′-(2-((2S)-1-((2R)-2-((methoxycarbonyl)amino)-3-methylbutanoyl)-2-pyrrolidinyl)-1H-imidazol-5-yl)-4-biphenylyl)-1H-imidazol-2-yl)-1-pyrrolidinyl)carbonyl)-2-methylpropyl)carbamate] | 1 to 99 | 
12 | COC(=O)N[C@@H](Cn1cccn1)C(=O)N1CCC[C@H]1c1ncc(-c2ccc(-c3ccc(-c4cnc([C@@H]5CCCN5C(=O)[C@@H](NC(=O)OC)C(C)C)[nH]4)cc3)cc2)[nH]1 [cj-38, methyl ((1S)-1-(((2S)-2-(5-(4′-(2-((2S)-1-((2S)-2-((methoxycarbonyl)amino)-3-(1H-pyrazol-1-yl)propanoyl)-2-pyrrolidinyl)-1H-imidazol-5-yl)-4-biphenylyl)-1H-imidazol-2-yl)-1-pyrrolidinyl)carbonyl)-2-methylpropyl)carbamate] | 0.001 to 0.999 | 
13 | CC(C)[C@H](N)C(=O)N1[C@@H]2C[C@@H]2C[C@H]1c1nc(-c2ccc(-c3ccc(-c4cnc([C@@H]5C[C@H]6C[C@H]6N5C(=O)[C@@H](N)C(C)C)[nH]4)cc3)cc2)c[nH]1 [Example M140a-i, (2S)-1-((1R,3S,5R)-3-(4-(4′-(2-((1R,3S,5R)-2-((2S)-2-amino-3-methylbutanoyl)-2-azabicyclo[3.1.0]hex-3-yl)-1H-imidazol-5-yl)-4-biphenylyl)-1H-imidazol-2-yl)-2-azabicyclo[3.1.0]hex-2-yl)-3-methyl-1-oxo-2-butanamine] | 1 to 99 | 
14 | O=C(N[C@@H](C(=O)N1CCC[C@H]1c1ncc(-c2ccc(-c3ccc(-c4cnc([C@@H]5CCCN5C(=O)[C@H]5CCCO5)[nH]4)cc3)cc2)[nH]1)c1ccccc1)N1CCOCC1 [Example 120, N-((1R)-2-oxo-1-phenyl-2-((2S)-2-(5-(4′-(2-((2S)-1-((2R)-tetrahydro-2-furanylcarbonyl)-2-pyrrolidinyl)-1H-imidazol-5-yl)-4-biphenylyl)-1H-imidazol-2-yl)-1-pyrrolidinyl)ethyl)-4-morpholinecarboxamide] | 0.001 to 0.999 | 
15 | COc1ccccc1OCC(=O)N1CCC[C@H]1c1ncc(-c2ccc(-c3ccc(-c4cnc([C@@H]5CCCN5C(=O)[C@@H](c5ccccc5)N(C)C)[nH]4)cc3)cc2)[nH]1 [Example 94-24, (1R)-2-((2S)-2-(5-(4′-(2-((2S)-1-((2-methoxyphenoxy)acetyl)-2-pyrrolidinyl)-1H-imidazol-5-yl)-4-biphenylyl)-1H-imidazol-2-yl)-1-pyrrolidinyl)-N,N-dimethyl-2-oxo-1-phenylethanamine] | 0.001 to 0.999 | 
16 | COC(=O)N[C@@H](C)C(=O)N1CCC[C@H]1c1ncc(-c2ccc(-c3ccc(-c4cnc([C@@H]5CCCN5C(=O)[C@H](Cc5ccncc5)NC(=O)OC)[nH]4)cc3)cc2)[nH]1 [cj-90, methyl ((1S)-2-((2S)-2-(5-(4′-(2-((2S)-1-(N-(methoxycarbonyl)-L-alanyl)-2-pyrrolidinyl)-1H-imidazol-5-yl)-4-biphenylyl)-1H-imidazol-2-yl)-1-pyrrolidinyl)-2-oxo-1-(4-pyridinylmethyl)ethyl)carbamate] | 0.001 to 0.999 | 
17 | O=C(CC1CC1)N1CCC[C@H]1c1ncc(-c2ccc(-c3ccc(-c4cnc([C@@H]5CCCN5C(=O)CC5CC5)[nH]4)cc3)cc2)[nH]1 [Example 12, 5,5′-(4,4′-biphenyldiyl)bis(2-((2S)-1-(cyclopropylacetyl)-2-pyrrolidinyl)-1H-imidazole)] | 1 to 99 | 
18 | Cn1cncc1C(=O)N[C@@H](C(=O)N1CCC[C@H]1c1ncc(-c2ccc(-c3ccc(-c4c[nH]c([C@@H]5CCCN5C(=O)[C@H]5CCCO5)n4)cc3)cc2)[nH]1)c1ccccc1 [Example 120-5, 1-methyl-N-((1R)-2-oxo-1-phenyl-2-((2S)-2-(5-(4′-(2-((2S)-1-((2R)-tetrahydro-2-furanylcarbonyl)-2-pyrrolidinyl)-1H-imidazol-4-yl)-4-biphenylyl)-1H-imidazol-2-yl)-1-pyrrolidinyl)ethyl)-1H-imidazole-5-carboxamide] | 1 to 99 | 
19 | COC(=O)N[C@H](C(=O)N1CCC[C@H]1c1ncc(-c2ccc(-c3ccc(-c4cnc([C@@H]5CCCN5C(=O)CNC(C)C)[nH]4)cc3)cc2)[nH]1)C(C)C [LS25, methyl ((1S)-1-(((2S)-2-(5-(4′-(2-((2S)-1-(N-isopropylglycyl)-2-pyrrolidinyl)-1H-imidazol-5-yl)-4-biphenylyl)-1H-imidazol-2-yl)-1-pyrrolidinyl)carbonyl)-2-methylpropyl)carbamate] | 0.001 to 0.999 | 
20 | (1R)-N,N-dimethyl-2-((2S)-2-(5-(4′-(2-((2S)-1- ((2R)-2-(4-morpholinyl)-2-phenylacetyl)-2- pyrrolidinyl)-1H-imidazol-5-yl)-4-biphenylyl)- 1H-imidazol-2-yl)-1-pyrrolidinyl)-2-oxo-1- phenylethanamine [Example 89] |  | 0.001 to 0.999
